Measured values as given in a melting point compilation (Tetko et al.; mined from patent text by program, amines drawn as free bases though some values may be those of a salt).

Compound	melting point [°C]
CCCCCC1=NNC(C)=C(C(=O)NN)C1c1ccccc1 (stereo not given)	161
c1ccc2c(N3CCOCC3)nc(N3CCOCC3)nc2c1	172 to 174
CC(C)(C)c1ccc(CN(O)Cc2ccc(C(C)(C)C)cc2)cc1	108 to 110
O[C@@H]1C=CO[C@H](COCc2ccccc2)[C@H]1OCc1ccccc1	53
CCN(CC)c1ccc(/C=C/c2ccccc2F)cc1	78 to 79
Clc1ccc(-c2nnc(CSCCOc3ccccc3)o2)cn1	113 to 115
C=CC(=O)N1CC(O)CC1C(=O)OC (stereo not given)	77 to 78
CN(C)CCNC(=O)Cc1ccc(NC(=O)Cc2ccc([N+](=O)[O-])cc2)cc1	160 to 162
O=C(O)CSc1cccc2c1S(=S)N=N2 (stereo not given)	207 to 209
CCCOc1ccccc1CCOc1ccc2c(c1)C=C(C(=O)Nc1ccc(CN(C)C3CCOCC3)cc1)CCS2(=O)=O	161 to 162
C[C@@H](NC(=NC#N)Nc1ccc(C#N)cc1)C(C)(C)C	159 to 160
CC(CO)NC(=O)c1ccc(CN(C2CCCCC2F)S(=O)(=O)c2ccc(Cl)cc2)c(F)c1F (stereo not given)	126 to 128
Nc1nc2ccccc2c2c1ncn2CCCC(=O)c1ccccc1	209 to 211
C=CCOC(=O)c1c(C)c(OC)cc(O[Si](C)(C)C(C)(C)C)c1C=O	94 to 95
CS(=O)c1n[nH]c2ccc(C(F)(F)F)cc12 (stereo not given)	168 to 170
c1ccc2sc(SSN3CCCCCC3)nc2c1	65 to 67
CC(C)(C)OC(=O)NCCCCC(NC(=O)OCc1ccccc1)C(N)=O (stereo not given)	140 to 142
COC(=O)C1(NC(C)=O)CCc2cc(OC)ccc2C1 (stereo not given)	153 to 154
SC1CCn2c(CCc3ccccc3)nc3cccc1c32 (stereo not given)	75.7 to 78.8

Compound	melting point [°C]
CCCc1nc(N(C)c2ccccc2)n2ncc(C(O)c3ccccc3Cl)c2n1 (stereo not given)	153 to 155
COCc1cccc(Cl)c1NC(=O)CC1c2ccccc2Oc2ccccc21	184 to 185
N#Cc1ccc(CBr)c(C#N)c1	106
CC(=O)NC1=NCC(c2ccccc2)CN1 (stereo not given)	246 to 249
CC(=O)Oc1ccc(C(=O)N2CCN(C(N)=O)C2=O)cc1OC(C)=O	222 to 224
c1csc(N=C2SC[C@@H]3Cc4ccccc4CN23)c1	112
CCCCS(=O)(=O)NC1Cc2ccc(C(=O)CCC(=O)O)cc2C1 (stereo not given)	138 to 140
NCCC(=O)NCCCCCNC(=O)Cc1cccc(O)c1	109 to 115
CNC(=C[N+](=O)[O-])NCCSCc1[nH]cnc1C	141 to 143
CNS(=O)(=O)c1ccc(Oc2ccc(NC(C)=O)cc2)cc1	183 to 184
CCOC(=O)c1ccc(NC(=O)CCc2ccc3ccccc3c2)cc1	119 to 121
O=S1(=O)N=CN(CCF)c2cc(Cl)c(Cl)cc21	233 to 234
OCc1ccc2c(c1)C(C(Cl)(Cl)Cl)OC(C(Cl)(Cl)Cl)O2 (stereo not given)	134 to 136
CCc1nn(C)c(CC)c1NC(N)=S	234 to 235
Cc1c(C2=CCC(c3ccccc3)(N(C)C)CC2)[nH]c2ccccc12 (stereo not given)	168 to 180
O=C(Nc1cccnc1S(=O)(=O)c1ccc(Cl)cc1)N[C@@H](Cc1ccc(NC(=O)c2c(Cl)cccc2Cl)cc1)C(=O)O	181
COc1ccc(C[C@H](N[C@@H](Cc2ccccc2)C(=O)O)C(=O)NCCc2ocnc2C(=O)O)cc1	103 to 106
Cc1ncc([N+](=O)[O-])cc1C(=O)NCCO	144 to 145
O=C1C[C@@H]2CCC(c3ccccc3)=C[C@@H]2O1 (relative stereo)	90 to 92

Compound	melting point [°C]
CC(C)C[C@H](NC(=O)OCc1ccccc1)C(=O)N[C@@H](C(C)C)[C@@H](O)c1c(-c2ccccc2)c1=O	84 to 94
CC1(C)CC(=O)OC1c1ccc(Cl)c([N+](=O)[O-])c1 (stereo not given)	134 to 136
O=C(O)c1ccc(Oc2ccccc2Oc2ccc(C(=O)O)cc2)cc1	255 to 257
CCCCCCCCCCCCc1ccc(S(=O)(=O)Nc2nncs2)cc1	126 to 127
CCOC(=O)c1cc2n(n1)CCCO2	44 to 46
CCCCC(=O)N(Cc1ccc(Br)cc1)[C@H](C(=O)O)C(C)C	123
Nc1ccc(OCCCCCCCCCCOc2ccc(N)cc2)cc1	70 to 71
Nc1ccccc1C(=O)NCC1CCN(C(c2ccccc2)c2ccccc2)CC1	153 to 154
O=[N+]([O-])c1cccc(CN2CCOCC2)c1	48 to 50
OC(COCC1CNCCO1)c1ccc2ccccc2c1 (stereo not given)	141 to 144
CN(C)C(N)=Nc1cc(Cl)ccc1N1CCOCC1	135 to 138
OCc1cc(OCc2ccc3ccccc3n2)no1	111 to 112
C=C(CC(=O)Nc1cc(Cl)cc(Cl)c1)C(=O)OCCCCCC	60
CSC[C@H](N)C(=O)NC(C)=O	120 to 123
NC(=S)Nc1ccc(C(F)(F)F)cn1	203 to 205
CC(=O)OCCOCn1cc(C)c(=O)[nH]c1=O	105 to 107
NC(=O)C1CCc2sc3ccccc3c2C1 (stereo not given)	153 to 155
Cc1ncccc1[N+](=O)[O-]	29 to 31
CC(C)(C)OC(=O)NN=Cc1ccccc1	184 to 186

Continued, values first:

melting point [°C]	Compound
108 to 110	Cc1c(C)c2c(c(C)c1NC(=O)CC(C)C)C(O)(c1ccc3ccccc3c1)C(C)(C)O2 (stereo not given)
215 to 220	C[C@@H](NC(=O)c1nc(-c2ccc(Cl)cc2)ns1)[C@](O)(Cn1cncn1)c1ccc(F)cc1F
239	O=c1[nH]c2ccc(Cl)cc2n1-c1ccc(Cl)cc1
104 to 107	CCOC(=O)c1cc(-c2ccccc2)nn1Cc1ccc(Cl)cc1Cl
256 to 258	O=C1CCC(N2Cc3c(OCc4cc(Cl)ccc4Cl)cccc3C2=O)C(=O)N1 (stereo not given)
89 to 90	CN(Cc1ccc(F)cc1)C1CCN(c2ccc([N+](=O)[O-])cc2)CC1
85.5 to 86.5	Cc1ccc(-c2ncc(-c3cccs3)s2)cc1
83 to 85	CCc1nc2ccccc2c(C(=O)OCC(=O)OC(C)(C)C)c1Oc1ccc(-c2ccccc2C#N)cc1
179 to 182	COc1ccc(C(=O)Nc2ccc(Cl)c(Cl)c2)cc1N
194 to 195	CC(C(=O)O)c1ccc2oc3ncccc3c(=O)c2c1 (stereo not given)
244 to 248	Cc1cc(=O)c(-c2ccc(Oc3ccc(OC(F)(F)F)cc3)cc2)c(C)[nH]1
179 to 181	CCCn1c(=O)c2c(nc(/C=C/c3ccc(OC(C)=O)c(OC)c3)n2C)n(CCC)c1=O
102 to 104	BrCCCCn1c2ccccc2c2ccccc21
210 to 230	O=C(O)/C=C\C(=O)Nc1ccc2c(=O)n3c(nc2c1)C(=Cc1ccccc1)CC3
81	CC(C)(C)OC(=O)N1C(=O)C(C2=COc3ccccc3O2)=C(c2cn(C(=O)OC(C)(C)C)c3cc(OCc4ccccc4)ccc23)C1=O
183 to 184	COc1cc2c(cc1OC)[C@@H]1CN(C)CC[C@@H]1N=C2c1ccc(Cl)c(Cl)c1 (relative stereo)
225 to 229	CCC(CC)c1ccc(Cl)c2nc3n(c12)CCN3c1ccc(C(N)=O)cc1Cl
196 to 197	O=C(Oc1cc(=O)[nH]cc1Cl)c1ccccc1
134 to 135	COc1cc(CO)ccc1OCc1nc(-c2cccc([N+](=O)[O-])c2)oc1C
301 to 304	CS(=O)(=O)c1ccc2cc(C(=O)O)ccc2c1
160	Cc1cccc(NC(=O)c2cc(C#N)cc(C)n2)c1
160 to 161	CCCOc1ccc2c(c1)C(OS(=O)(=O)F)=C(C(=O)OC)[C@H]2c1ccc2c(c1)OCO2
115 to 116	C=COCCONC(=O)c1cc(F)c(F)c(F)c1Nc1ccc(I)cc1Cl
124 to 126	Cc1cc(C)nc(-n2ccnc2SCc2ccccc2NC=O)c1

melting point [°C]	Compound
175	COc1cc2c(cc1OC)CN(CCc1ccc(NC(=O)c3cccc4c(=O)c5cccc(C)c5[nH]c34)cc1)CC2
78 to 85	CC1=Nc2ccccc2CN1C1CCC(=O)NC1=O (stereo not given)
200 to 202	O=C(O)Cn1c(=O)n(Cc2ccccc2)c2ccccc21
110 to 111	CN(C)CCCn1c(-c2ccc(Br)cc2)csc1=Nc1ccccc1
> 250	O=c1[nH]c2cc(N3CCCC3)c(F)cc2c(=O)n1O
113 to 114	Cc1nc(COc2ccc(Cn3cc(CCC(=O)O)c(-c4ccccc4)c3)cc2)cs1
142 to 144	CON1CCC2(CC1)NC(=O)C(Cl)(c1cc(C)ccc1C)C2=O (stereo not given)
214 to 216	CCOC(=O)N1CCc2nc3ccc(N)cc3c(C)c2CC1
72 to 82	CN1CCN(c2ncccc2OC2CCN(c3ccc(Br)cc3)C2=O)CC1 (stereo not given)
240	Cc1ccc2c(c1)c1cc(-c3cc(F)cc(F)c3)c(=O)n(C)c1n2C
182 to 185	CC(=O)N1C=C(c2ccccc2)NC(=O)C1C(C)C (racemic)
176 to 178	Cc1noc(NS(=O)(=O)c2cccc3cccnc23)c1C
192 to 194	CCc1cn(C2CC(O)(c3ccc(C)cc3)C(C(O)c3ccc(C)cc3)O2)c(=O)[nH]c1=O (stereo not given)
127 to 128	COCN1C(=O)C(=C/c2ccccc2)/C(=C\c2cc(OC)c(OC)c(OC)c2)C1=O
268 to 270	CCC(=O)Nc1ccc(C2=NNC(=O)C3CC23)cc1 (stereo not given)
130 to 132	CCn1ncc2c(NCc3ccccc3)c3ccccc3nc21
120 to 121	Cc1ccccc1N1CCc2c(N(C)C)nc3c(C)cccc3c21
130 to 132	O=C(c1ccc(F)cc1)N1CC2CC2(c2ccc(Cl)cc2)C1 (stereo not given)
> 300	Cc1cc2[nH]c(=O)c3cnc(Cl)cc3n2n1
188 to 190	Cc1cccc(NS(=O)(=O)c2ccc(N3CCNC3=O)cc2)c1
150	Cc1ccc(-c2cc3c4cc(C)ccc4n(C)c3n(C)c2=O)c(C)c1
164	CC(C)(C)c1cc(Cn2nc(-c3ccccc3)oc2=O)cc(C(C)(C)C)c1O
223 to 225	CCc1ccc(-n2c(-c3ccc(SC)cc3)nc(SC)c(C#N)c2=O)cc1
133 to 134	O=C1Cc2ccccc2C(c2cccc(Cl)c2)N1 (stereo not given)
